The text below walks through data of patent publication US10716869B2, “Radiolabeled macrocyclic EGFR inhibitor” (Oncodesign SA, priority 2016, dated 2020).

Data set [1] in a line: biodistribution by ex vivo γ-counting in Sprague Dawley rats. The procedure:
To evaluate the biodistribution of the pure S (II) and R (III) enantiomers compared to compound (I), dynamic PET scan imaging and ex vivo gamma counting were performed on Sprague Dawley rats. Animals were injected with the radiotracer solution diluted in NaCl 0.9% to prepare a solution of activity 4-6 MBq (gamma-counting experiments) or 11-13 MBq (PET imaging experiments) in a volume of 300-400 or 600-800 μL, respectively. Radioactivity content in all biological samples was determined with scintillation γ-counter (Cobra 4180, Perkin-Elmer Inc.).
At the light of the biodistribution data of compound (I), the biodistribution of the R (III)- and S (II)-enantiomers was assessed by γ-counting in the organs in which the accumulation of compound (I) was prominent (that is: blood, heart, kidneys, liver, stomach, small intestine and colon). Two timepoints were selected: 5 and 30 minutes post-injection. […] The higher uptakes of R enantiomer (III) and S enantiomer (II) in these organs were expected to be observed at early timepoints after injection, giving the highest signals in the γ-counter and therefore making the comparison of biodistribution data more relevant. Besides, as PET images were acquired with compound (I), PET imaging was included in the evaluation of the biodistribution of R enantiomer and S enantiomer. This gave the opportunity to had one additional timepoint at 4 hours post-injection for collection of major organs and determination of radioactivity content by ex vivo γ-counting.

Data set [2] concerns panel of 92 wild-type kinases. The experiment in a line: kinase selectivity, residual activity at 100 nM and 1 μM. To be noted: for selectivity score S(50): 92 wild-type kinases.
Description: Corresponding kinases and substrates were always tested at the ATP Km concentration.
Data set [3] addresses T790M (EGFR mutant) (Homo sapiens, UniProt P00533, L858R/T790M). Put plainly: radiometric protein kinase assay (33PanQinase Activity Assay). To be noted: Test 1; read-out: Biochemical IC50 T790M. The procedure:
A radiometric protein kinase assay (^33PanQinase® Activity Assay) was used for measuring the biochemical kinase activity of 3 protein kinases, EGFR wild-type and 2 EGFR mutants (L858R, L858R/T790M). The compounds were tested in 100% DMSO, all recombinant protein kinases and substrates with respective concentration are described in table 1.

Data set [4] has as its target T1, EGFR T790M/L858R (human, 672-1210) (Homo sapiens, UniProt P00533, L858R/T790M).
T1 construct: (human, 672-1210)
The data set is described as above. To be noted: Tests 1-3 are repeat determinations; read-out: Biochemical IC50 EGFR L858R/T790M. The procedure:
(§1) The compounds were tested in 100% DMSO, all recombinant protein kinases and substrates with respective concentration are described in table 1.

Data set [5] addresses T2, EGFR wt (human, 672-1210) (Homo sapiens, UniProt P00533).
T2 construct: (human, 672-1210)
Described as above. To be noted: Tests 1-3 are repeat determinations; read-out: Biochemical IC50 EGFR WT (activated). The procedure:
as §1

For data set [6], the target named is T3, EGFR L858R (human, 672-1210) (Homo sapiens, UniProt P00533, L858R).
T3 construct: (human, 672-1210)
T3 sequence (P00533 672-1210 L858R): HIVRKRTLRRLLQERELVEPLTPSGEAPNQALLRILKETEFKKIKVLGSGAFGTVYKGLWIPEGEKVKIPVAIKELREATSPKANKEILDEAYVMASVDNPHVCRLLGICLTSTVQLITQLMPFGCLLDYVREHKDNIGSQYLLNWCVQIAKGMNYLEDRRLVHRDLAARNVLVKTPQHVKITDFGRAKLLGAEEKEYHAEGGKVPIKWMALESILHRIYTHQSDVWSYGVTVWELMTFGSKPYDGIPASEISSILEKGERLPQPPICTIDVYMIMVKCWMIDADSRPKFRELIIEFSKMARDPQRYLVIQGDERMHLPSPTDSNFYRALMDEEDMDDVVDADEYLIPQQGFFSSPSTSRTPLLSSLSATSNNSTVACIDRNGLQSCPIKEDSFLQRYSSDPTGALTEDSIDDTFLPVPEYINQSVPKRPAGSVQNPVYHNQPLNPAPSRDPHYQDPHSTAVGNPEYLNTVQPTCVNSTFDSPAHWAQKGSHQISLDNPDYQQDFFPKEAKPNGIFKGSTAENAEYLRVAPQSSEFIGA
The description is as above. To be noted: Tests 1-3 are repeat determinations; read-out: Biochemical IC50 EGFR L858R. The procedure: as §1

Data set [7] relates to NCI-H3255 (EGFR_L858R). Put plainly: MTS cell viability assay, 72 hours. The format is cell-based, Human. The procedure:
(§2) The cell lines that were used to assay the cellular activity of the compounds are detailed in table 3 hereafter:
(§3) Tumor cells grew as monolayer at 37° C. in a humidified atmosphere (5% CO2) in complete culture medium adapted to each cell line. The cellular activity of the compounds was assessed by measuring the viability of cancer cell in MTS assay using a tetrazolium compound (MTS, 3-(4,5-dimethylthiazol-2-yl)-5-(3-carboxymethoxy phenyl)-2-(4-sulfophenyl)-2H-tetrazolium) and an electron coupling reagent named PMS (phenazine methosulfate). MTS is bioreduced by cells into a formazan product that is directly soluble in culture medium without processing. The cells were seeded 24 hours before treatment at the appropriate density in their culture medium to be near 90% of confluence at the end of experiment in vehicle treated conditions. After addition of compounds, the cells were incubated for 72 hours.
A general note: Tetrazolium dyes change colour on reduction, which living cells bring about.

Data set [8] has as its system NCI-H441 (EGFR WT). Put plainly: MTS cell viability assay, 72 hours. The format is cell-based, Human. To be noted: read-out: Cellular IC50 NCI-H441 (EGFR WT). The procedure: as §2, §3
For data set [9], the system named is human lung tumors (wild type EGFR, L858R mutated or exon 19 deleted EGFR). The experiment in a line: autoradiography on human frozen tumor sections. To be noted: ATP at 10 mM.
Description: Three types of human lung tumors were included: tumors harboring wild type EGFR and tumors carrying L858R mutated or exon 19 deleted EGFR genes.
Data set [10] is described as follows: radiochemical stability in vehicle by HPLC. To be noted: conditions of formulation, storage at room temperature. The format is physicochemical. The procedure: By this method, the final radiolabeled compound can be obtained with a radiochemical purity greater than 98% in 100-110 min with a yield that can reach 25% (decay corrected). It has been noticed that an uncompleted evaporation of the solvents used for the purification of [^18F]Fluoroethyltosylate hampers the second step and conducts to lower yields. Specific activity of productions was in the range of […]. The radiolabeled compound is stable in the conditions of formulation as radiochemical purity still greater than 95% 20 h after production with a storage at room temperature.
(§4) After radiosynthesis, the stability of the radiotracer was evaluated by HPLC both in its vehicle and in rat plasma. Compound (I) was formulated in physiologic serum/ethanol with the respective proportion 87.5/12.5 (v/v). A mixture of compounds (I) (i.e. radiolabelled) and (Ia) (i.e. cold analogue) was stable for up to 20 hours at room temperature in its vehicle, only one peak being detected at the expected retention time. In rat plasma two peaks were detected: one at 3.15 minutes and one at 8.02 minutes (corresponding to a mixture of compounds (I) and (Ia)) after an incubation at +37° C. for 4 hours.

The nature of data set [11]: plasma stability by HPLC. The format is in vitro ADME, rat. To be noted: checked up to 4 h. The procedure:
as §4

The subject of data set [12] is WT NCI-H441 tumors. Put plainly: in vivo specificity: competition for uptake of Compound (I). Details: species or system rats. To be noted: gefitinib 2 mg/rat or Compound (Ia) 1 mg/rat.

SMILES strings stand for the structures. Several values for one entry are separate records, joined by “and”; a condition that tells them apart may be missing. Equal values may be shown once. Read-outs that look alike come from different tables or passages of the source.

T2 sequence (P00533 672-1210): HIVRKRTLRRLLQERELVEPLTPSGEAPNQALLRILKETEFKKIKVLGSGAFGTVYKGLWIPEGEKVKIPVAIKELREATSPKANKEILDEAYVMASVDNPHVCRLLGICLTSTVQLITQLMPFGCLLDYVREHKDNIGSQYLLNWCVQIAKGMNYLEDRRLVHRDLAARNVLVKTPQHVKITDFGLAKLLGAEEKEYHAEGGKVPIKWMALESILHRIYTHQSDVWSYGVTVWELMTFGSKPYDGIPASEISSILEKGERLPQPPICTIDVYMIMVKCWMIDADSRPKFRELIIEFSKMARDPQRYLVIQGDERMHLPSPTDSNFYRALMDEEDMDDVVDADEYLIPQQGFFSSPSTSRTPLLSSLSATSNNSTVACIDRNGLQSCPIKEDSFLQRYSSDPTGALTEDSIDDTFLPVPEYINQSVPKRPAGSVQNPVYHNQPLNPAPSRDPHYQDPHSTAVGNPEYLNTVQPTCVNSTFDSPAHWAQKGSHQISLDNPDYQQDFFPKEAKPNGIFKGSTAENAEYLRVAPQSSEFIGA
Chain of T790M (EGFR mutant) (P00533 672-1210 T790M/L858R): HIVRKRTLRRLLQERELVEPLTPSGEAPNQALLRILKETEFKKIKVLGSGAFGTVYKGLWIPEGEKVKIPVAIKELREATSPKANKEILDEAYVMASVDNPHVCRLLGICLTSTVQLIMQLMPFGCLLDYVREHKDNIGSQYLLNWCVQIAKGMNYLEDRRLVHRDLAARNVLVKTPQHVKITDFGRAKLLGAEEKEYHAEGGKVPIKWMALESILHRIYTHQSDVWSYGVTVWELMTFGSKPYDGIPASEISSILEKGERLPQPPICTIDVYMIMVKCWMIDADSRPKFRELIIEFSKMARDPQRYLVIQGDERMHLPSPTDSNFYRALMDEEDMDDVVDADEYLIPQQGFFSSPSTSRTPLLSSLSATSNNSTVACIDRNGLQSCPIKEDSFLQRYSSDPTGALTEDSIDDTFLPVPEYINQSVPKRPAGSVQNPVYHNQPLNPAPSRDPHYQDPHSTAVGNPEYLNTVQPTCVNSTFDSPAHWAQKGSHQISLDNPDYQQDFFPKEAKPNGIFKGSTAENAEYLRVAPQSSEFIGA
T1 sequence (P00533 672-1210 T790M/L858R): as above

As to `CC(C)[C@H]1NC(=O)Cc2ccc(Cl)cc2Nc2ncnc3cc(OCC[18F])c(cc23)OCCCNC1=O` [(III)], the results for the uptake in liver in [1] (5 minutes post injection) and in [1] (30 minutes post injection) were 0.02±0.09 % ID/g and 0.71±0.07 % ID/g, respectively. Moreover, the “uptake in small intestine” value is recorded as 0.35±0.19 % ID/g in data set [1] (5 minutes post injection) and 0.02±0.004 % ID/g in data set [1] (thirty minutes post-injection). In [1] (5 minutes post-injection), this compound registered an uptake in blood of 0.20±0.002 % ID/g. Besides, the uptake in heart is 0.99±0.02 % ID/g in data set [1] (5 minutes post-injection) and 0.10±0.02 % ID/g in data set [1] (30 minutes post-injection). Also, the uptake in kidneys in data set [1] (5 minutes post-injection) is 4.15±0.79 % ID/g; in [1] (30 minutes timepoint) it was 0.25±0.08 % ID/g. Besides, the uptake in stomach in [1] (5 minutes post-injection) was 1.86±0.73 % ID/g; in data set [1] (30 minutes timepoint), 0.26±0.07 % ID/g; in data set [1] (four hours post-injection), 2.58±2.52 % ID/g.

On to `CC(C)[C@H]1NC(=O)Cc2ccc(Cl)cc2Nc2ncnc3cc(OCCF)c(cc23)OCCCNC1=O` [Compound (IIIa)], for which the “selectivity score S(50)” value is listed as 0.6% in data set [2] (at 100 nM) and 2.8% in data set [2] (at 1 μM). In addition, the IC50 amounted to 54.7 nM in data set [3]; 77.7 nM in data set [4]; 3.1 nM in data set [5]; 2.7 nM in [6]; 6.1 nM in data set [7] (Homo sapiens, NCI-H3255, 72 h, read-out: mean IC50 on NCI-H3255); 34700 nM in data set [8] (Homo sapiens, NCI-H441, 72 h). Moreover, the IC50 in data set [8] was more than 25000 nM.

In the case of `Nc1ncnc2c1ncn2[C@@H]1O[C@H](COP(=O)(O)OP(=O)(O)OP(=O)(O)O)[C@@H](O)[C@H]1O` [ATP, reference compound], the “competition with the binding of Compound (I) on frozen tumor sections” value in data set [9] was “totally abolished the binding of Compound (I)”.

On to `CC(C)[C@@H]1NC(=O)Cc2ccc(Cl)cc2Nc2ncnc3cc(OCC[18F])c(cc23)OCCCNC1=O` [Compound (II)], for which the uptake in liver is recorded as 0.97±0.92 % ID/g in data set [1] (5 minutes post injection) and 0.15±0.03 % ID/g in data set [1] (30 minutes post injection). For the same compound, the “uptake in small intestine” value came to 0.08±0.09 % ID/g in data set [1] (5 minutes post injection) and 0.08±0.07 % ID/g in data set [1] (thirty minutes post-injection). In data set [1] (5 minutes post-injection), this compound had an uptake in blood of 0.11±0.01 % ID/g. Besides, the uptake in heart in data set [1] (5 minutes post-injection) is on record as 1.35±0.35 % ID/g; in data set [1] (30 minutes post-injection), 0.19±0.08 % ID/g. Also, the uptake in kidneys came to 6.89±0.52 % ID/g in data set [1] (5 minutes post-injection) and 1.04±0.17 % ID/g in data set [1] (30 minutes timepoint). Moreover, the figures for the uptake in stomach in [1] (5 minutes post-injection), in data set [1] (30 minutes timepoint) and in [1] (four hours post-injection) were 0.72±0.38 % ID/g, 0.20±0.05 % ID/g and 2.39±2.31 % ID/g, respectively. The “radiochemical purity 20 h after production” value in [10] is given as “greater than 95%”. Further, the “Plasmatic stability” value in [11] was “without significant degradation”.

Take `CC(C)[C@@H]1NC(=O)Cc2ccc(Cl)cc2Nc2ncnc3cc(OCCF)c(cc23)OCCCNC1=O` [Compound (IIa)]: the “wild-type kinases inhibited for more than 50%” value in data set [2] (at 100 nM) was “EGFR and RIPK2 were the only wild-type kinases inhibited for more than 50%”. For the same compound, the “selectivity score S(50)” value in data set [2] (at 100 nM) is 2.2% and 2.5%; in [2] (at 1 μM), 11.9% and 13%. Also, in data set [2] (at 1 μM), the “number of other kinases with inhibition of >50%” value was found to be 9. Besides, the IC50 in data set [3] is 1010 nM; in data set [4], 924 nM; in data set [5], < 10 nM and 5.9 nM; in data set [6], < 10 nM and 6.3 nM; in [7] (Homo sapiens, NCI-H3255, 72 h, read-out: Cellular IC50 NCI-H3255 (EGFR_L858R)) it was 30 nM; in [7] (read-out: Cellular IC50 NCI-H3255 (EGFR_L858R)), 49 nM. In addition, the IC50 in data set [8] (Homo sapiens, NCI-H441, 72 h) is more than 25000 nM.

Regarding `COc1cc2ncnc(Nc3ccc(F)c(Cl)c3)c2cc1OCCCN1CCOCC1` [Gefitinib, gefitinib, reference compound], the “change of uptake of Compound (I) after competition” value in data set [12] is recorded as “+16%”.
